{"source": "patent US7939064B2", "about": "(priority 2006, dated 2011)", "system": "transient cerebral focal ischemia (left middle cerebral artery occlusion)", "conditions": "rat, in vivo"}
{"smiles": "C[C@]12N[C@H](Cc3ccccc31)c1ccccc12", "note": "[MK801, dizocilpine, reference compound]", "values": [{"measurement": "infarct volume relative to saline-treated control", "result": "61.1%±8.6%"}, {"measurement": "reduction of focal ischemia / infarct size (summary statement)", "result": 40, "unit": "%"}]}
